Activity calls are given as the source filed them. The rule behind the calls is not given here.

The target in assay [1] is T1, High affinity choline transporter 1 (Homo sapiens, UniProt Q9GZV3).
T1 sequence (Q9GZV3 whole entry): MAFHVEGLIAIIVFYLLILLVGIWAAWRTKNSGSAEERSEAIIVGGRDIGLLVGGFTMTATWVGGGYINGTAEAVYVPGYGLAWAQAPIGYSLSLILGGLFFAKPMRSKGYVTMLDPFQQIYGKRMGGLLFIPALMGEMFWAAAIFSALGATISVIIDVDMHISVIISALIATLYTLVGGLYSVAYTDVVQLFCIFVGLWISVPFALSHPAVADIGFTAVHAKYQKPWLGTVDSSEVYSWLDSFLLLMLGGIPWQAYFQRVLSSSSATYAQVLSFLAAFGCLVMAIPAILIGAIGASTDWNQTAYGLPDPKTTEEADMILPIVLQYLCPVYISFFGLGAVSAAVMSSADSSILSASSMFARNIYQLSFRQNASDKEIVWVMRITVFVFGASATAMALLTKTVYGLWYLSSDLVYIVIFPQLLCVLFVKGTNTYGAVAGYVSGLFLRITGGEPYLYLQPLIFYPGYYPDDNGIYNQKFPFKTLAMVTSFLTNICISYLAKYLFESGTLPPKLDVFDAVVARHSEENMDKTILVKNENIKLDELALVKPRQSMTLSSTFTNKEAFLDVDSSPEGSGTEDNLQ
The experiment in a line: CHT inhibitors, dose response, cell-based, 5-point CRC, membrane potential dye (AID 504840). It is filed as functional.

The target of assay [2] is T1, High affinity choline transporter 1. Nature of the assay: CHT inhibitors, dose response, cell-based, 10-point CRC, membrane potential dye (AID 588401).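 Note: membrane potential dye fluorescence of choline-evoked depolarization via CHT.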 Format: functional.

What is called IC50 is the concentration that inhibits the measured activity by half. With `C=CCc1ccc(O)c(-c2cc(CC=C)ccc2O)c1` [MAGNOLOL], the IC50 is 2890 nM (active) in assay [1] and 1700 nM (active) in assay [2].

These data come from ChEMBL document CHEMBL1201862, “PubChem BioAssay data set” (2004).
